Measurements taken from US20020133846A1, “Method for protecting plants” (priority 1996, published 2002).
Read-outs that look alike come from different tables or passages of the source.

Tests used:
[1] = system: Peronospora parasitica NoCo2; assay: whole plant or invertebrate; assay type: in vivo
[2] = system: Peronospora parasitica isolate Emwa; assay: Action against Peronospora parasitica in Arabidopsis overexpressing NIM1 (lines 6E, 7C) and wild-type Ws; assay type: in vivo
Text: The plant lines used in this example (6E and 7C) were generated from transformation of wild-type Arabidopsis thaliana plants (ecotype Ws) with the BamHI-HindIII NIM1 genomic fragment (SEQ ID NO:1—bases 1249-5655), as described above in Example 21. The fungicides metalaxyl, fosetyl, and copper hydroxide, formulated as 25%, 80%, and 70% active ingredient (ai), respectively, with a wettable powder carrier, were applied as fine mist to leaves of three week-old transgenic Ws plants constitutively expressing the NIM1 gene. The wettable powder alone was applied as a control. Three days later, plants were inoculated with a Peronospora parasitica isolate Emwa conidial suspension (1-2×10^5 spores/ml), as described in Delaney et al. (1995). Following inoculation, plants were covered to maintain high humidity and were placed in a Percival growth chamber at 17° C. with a 14-hr day/10-hr night cycle (Uknes et al., 1993). Tissue was harvested 8 days after inoculation.
Fungal infection progression was followed for 12 days by viewing under a dissecting microscope to score development of conidiophores (Delaney, et al. (1994); Dietrich, et al. (1994)). Lactophenoltrypan blue staining of individual leaves was carried out to observe fungal growth within leaf tissue. Fungal growth was quantified using a rRNA fungal probe obtained by PCR according to White et al. (1990; PCR Protocols: A guide to Methods and Application, 315-322) using primers NS1 and NS2 and P. parasitica EmWa DNA as templates. RNA was purified from frozen tissue by phenol/chloroform extraction following lithium chloride precipitation (Lagrimini et al, 1987: PNAS, 84: 7542-7546). Samples (7.5 μg) were separated by electrophoresis through formaldehyde agarose gels and blotted to nylon membranes (Hybond-N+, Amersham) as described by Ausbel et al. (1987). Hybridizations and washing were according to Church and Gilbert (1984, PNAS, 81: 1991-1995). Relative amounts of the transcript were determined using a Phosphor Imager (Molecular Dynamics, Sunnyvale, Calif.) following manufacturers instructions. Sample loading was normalized by probing stripped filter blots with the constitutively expressed b-tubulin Arabidopsis cDNA.

[3] = Cu(OH)2 0.02 g/l, NIM1 overexpression line 6E
[4] = Cu(OH)2 0.02 g/l, NIM1 overexpression line 7C
[5] = Cu(OH)2 0.2 g/l, NIM1 overexpression line 6E
[6] = Cu(OH)2 0.2 g/l, NIM1 overexpression line 7C
[7] = Cu(OH)2 2.0 g/l, NIM1 overexpression line 6E
[8] = Cu(OH)2 2.0 g/l, NIM1 overexpression line 7C

## COCC(=O)N(c1c(C)cccc1C)C(C)C(=O)OC (racemic) [metalaxyl]
[1]; Hyaloperonospora parasitica, in Arabidopsis thaliana, read-out: Fungal Growth Inhibition % O (observed), Table 33, cim3 mutant, metalaxyl 0.02 mg/l
  inhibition at 0.02 µg/mL: 55.6%
[1]; Hyaloperonospora parasitica, in Arabidopsis thaliana, read-out: Fungal Growth Inhibition % O (observed), Table 33, cim3 mutant, metalaxyl 0.1 mg/l
  inhibition at 0.1 µg/mL: 57.8%
[1]; Hyaloperonospora parasitica, in Arabidopsis thaliana, read-out: Fungal Growth Inhibition % O (observed), Table 33, cim3 mutant, metalaxyl 2.5 mg/l
  inhibition at 2.5 µg/mL: 82.2%
[1]; Table 33, cim3 mutation + metalaxyl 0.1 mg/l
  Synergy Factor O/E: 4.6
[1]; Table 33, cim3 mutation + metalaxyl 2.5 mg/l
  Synergy Factor O/E: 6.6
[2]; Hyaloperonospora parasitica, in Arabidopsis thaliana, Table 36, NIM1 overexpression line 6E, metalaxyl 0.0012 g/l, read-out: Fungal Growth Inhibition % O (observed)
  inhibition at 1.2 µg/mL: 56%
[2]; Hyaloperonospora parasitica, in Arabidopsis thaliana, Table 36, NIM1 overexpression line 6E, metalaxyl 0.0125 g/l, read-out: Fungal Growth Inhibition % O (observed)
  inhibition at 12.5 µg/mL: 76%
[2]; Table 36, NIM1 overexpression line 6E + metalaxyl 0.0012 g/l
  Synergy Factor O/E: 1.5
[2]; Table 36, NIM1 overexpression line 6E + metalaxyl 0.0125 g/l
  Synergy Factor O/E: 1.1

## CSC(=O)c1cccc2nnsc12 [BTH]
[1]; Hyaloperonospora parasitica, in Arabidopsis thaliana, read-out: Fungal Growth Inhibition % O (observed), Table 34, cim3 mutant, BTH 0.01 mM
  inhibition at 10 µM: 16.6%
[1]; Hyaloperonospora parasitica, in Arabidopsis thaliana, read-out: Fungal Growth Inhibition % O (observed), Table 34, cim3 mutant, BTH 0.03 mM
  inhibition at 30 µM: 73.1%
[1]; Table 34, cim3 mutation + BTH 0.01 mM
  Synergy Factor O/E: 1.3
[1]; Table 34, cim3 mutation + BTH 0.03 mM
  Synergy Factor O/E: 2.2

## [Cu+2].[OH-].[OH-] [Cu(OH)2, copper hydroxide]
[2]; [3]
  Fungal Growth Inhibition % O (observed): 20%
  Synergy Factor O/E: 2.0
[2]; [4]
  Fungal Growth Inhibition % O (observed): 55%
  Synergy Factor O/E: 3.9
[2]; [5]
  Fungal Growth Inhibition % O (observed): 14%
  Synergy Factor O/E: 1.4
[2]; [6]
  Fungal Growth Inhibition % O (observed): 51%
  Synergy Factor O/E: 3.6
[2]; [7]
  Fungal Growth Inhibition % O (observed): 66%
  Synergy Factor O/E: 6.6
[2]; [8]
  Fungal Growth Inhibition % O (observed): 77%
  Synergy Factor O/E: 5.5
[2]; NIM1 overexpression line 7C + copper hydroxide 2.0 g/l
  synergy factor: 5.5
[2]; NIM1 overexpression line 7C, copper hydroxide 2.0 g/l
  fungal growth inhibition (observed): 77%

## CCO[PH](=O)O [fosetyl, ethyl hydrogen phosphonate]
[2]; Hyaloperonospora parasitica, in Arabidopsis thaliana, Table 37, NIM1 overexpression line 6E, fosetyl 0.05 g/l, read-out: Fungal Growth Inhibition % O (observed)
  inhibition at 50 µg/mL: 42%
[2]; Hyaloperonospora parasitica, in Arabidopsis thaliana, Table 37, NIM1 overexpression line 6E, fosetyl 0.5 g/l, read-out: Fungal Growth Inhibition % O (observed)
  inhibition at 500 µg/mL: 83%
[2]; Hyaloperonospora parasitica, in Arabidopsis thaliana, fosetyl 0.5 g/l, NIM1 overexpression line 7C, read-out: Fungal Growth Inhibition % O (observed)
  inhibition at 500 µg/mL: 56%
[2]; Hyaloperonospora parasitica, in Arabidopsis thaliana, read-out: Fungal Growth Inhibition % O (observed), Table 37, NIM1 overexpression line 6E, fosetyl 5.0 g/l
  inhibition at 5000 µg/mL: 93%
[2]; Hyaloperonospora parasitica, in Arabidopsis thaliana, read-out: Fungal Growth Inhibition % O (observed), fosetyl 5.0 g/l, NIM1 overexpression line 7C
  inhibition at 5000 µg/mL: 80%
[2]; Table 37, NIM1 overexpression line 6E + fosetyl 0.05 g/l
  Synergy Factor O/E: 4.2
[2]; Table 37, NIM1 overexpression line 6E + fosetyl 0.5 g/l
  Synergy Factor O/E: 6.9
[2]; Table 37, NIM1 overexpression line 6E + fosetyl 5.0 g/l
  Synergy Factor O/E: 5.5
[2]; fosetyl 0.5 g/l, NIM1 overexpression line 7C
  Synergy Factor O/E: 3.5
[2]; fosetyl 5.0 g/l, NIM1 overexpression line 7C
  Synergy Factor O/E: 3.8
